Experiments:
Assay type in all cases: cell-based, human
[1] = system: Tet-induction iPS cells expressing HSVtk; assay: Cell death of Tet-induction iPS cells expressing HSVtk on adding Dox and GCV to the medium; settings: 1 μg/ml doxycycline (Dox) and 1 μg/ml GCV added to the medium
Source text: Human iPS cells were infected with the CSIV-HSV1tk-TRE-EF-KT lentiviral vector at an MOI of 2.5 to 10 and cultured. The clones were then sorted with the cell sorter to obtain an iPS cell line expressing hKO1 steadily and highly.

[2] = system: Tet-induction NS/PCs expressing HSVtk; assay: Cell death of Tet-induction NS/PCs expressing HSVtk on adding Dox and GCV to the medium; settings: 1 μg/ml doxycycline (Dox) and 1 μg/ml GCV added to the medium
Source text: Tet-induced iPS cells expressing HSVtk were differentiation-induced into NS/PCs to obtain secondary and tertiary Tet-induced NS/PCs expressing HSVtk.

[3] = system: NS/PCs expressing HSVtk; assay: Cell death of NS/PCs expressing HSVtk on adding ganciclovir to the medium; settings: 1 μg/ml ganciclovir (GCV) added to the medium
Source text: Secondary or tertiary NS/PCs differentiation-induced from human iPS cells were collected with the centrifuge and disassembled into single cells using TrypLE Select. The single cells were suspended in NS medium, inoculated into a low adhesive flask at a concentration of 1×10^5 cells/ml, infected with the CSIV-EF-HSV1tk-IRES2-hKO1 lentiviral vector at an MOI (multiplicity of infection) of 0.5 to 1, and cultured for 7 days with the medium replaced every 3 to 4 days. The obtained NS/PCs were infected with the CSIV-EF-HSV1tk-IRES2-hKO1 lentiviral vector at an MOI of 0.5 to 1 in the same way again to prepare therapeutic stem cells (TSCs), that is, NS/PCs expressing HSVtk.

Nc1nc(O)c2ncn(COC(CO)CO)c2n1 [GCV, ganciclovir] was tested, and the “cell death of Tet-induction iPS cells expressing HSVtk” value [1] was “cell death of Tet-induction iPS cells expressing HSVtk was induced”, the “cell death of Tet-induction NS/PCs expressing HSVtk” value [2] was “cell death of these Tet-induction NS/PCs expressing HSVtk was also induced” and the “cell death of NS/PCs expressing HSVtk” value [3] was “cell death of the NS/PCs expressing HSVtk was induced”.

Source: patent publication US20210128639A1, “CELL PREPARATION FOR TREATING BRAIN TUMOR” (priority 2017, published 2021)
